Experimental data: patent US20220274997A1, “PIM KINASE INHIBITOR COMPOSITIONS AND USES THEREOF” (Snap Bio, Inc., priority 2019, published 2022)

Test system: A673
Test: CellTiter-Glo cancer cell growth inhibition, A673
Assay type: cell-based
Details: Homo sapiens, A673, 72 h
Source text: The CellTiter-Glo® Luminescent Cell Viability Assay is a sensitive homogeneous method to determine the number of viable cells in culture, Detection is based on using the luciferase reaction to measure the amount of ATP from viable cells. The amount of ATP in cells correlates with cell viability. Within minutes after a loss of membrane integrity, cells lose the ability to synthesize ATP, and endogenous ATPases destroy any remaining ATP; thus the levels of ATP fall precipitously. The CellTiter-Glo® Reagent does three things upon addition to cells. It lyses cell membranes to release ATP; it inhibits endogenous ATPases, and it provides luciferin, luciferase and other reagents necessary to measure ATP using a bioluminescent reaction. The unique properties of a proprietary stable luciferase.
All assays were performed by Reaction Biology Corporation (Malvern, Pa.) or ChemDiv, Inc. (San Diego, Calif.). All cell lines were purchased from American Type Culture Collection (ATCC, Manassas, Va.), except Huh 7 (RIKEN, Toyo, Japan) and HepaRG (Life Technologies, Carlsbad, Calif.).
Stock solutions ([…]) were diluted with cell culture media to produce 500× serial dilutions and […] of final compound dilutions were added to cells in assay plates to screen a series of 10 doses starting at […]. Final DMSO concentration was 0.2%. Assay plates are centrifuged at 100 rpm, 1 minute and kept at 37° C., 5% CO2, humidified atmosphere. […] Luminescence intensity was measured for each well using the Tecan M 1000 microplate reader after 5 min of incubation with CellTiter-Glo Reagent. The number of viable cells in culture was determined based on quantitation of the ATP present in each culture well. […] The EC50 curves were plotted and […] values were calculated using the GraphPad Prism 4 program based on a sigmoidal dose-response equation.

EC50: 10 nM
Compound: O=C1NC(=O)c2c1c1c3ccccc3[nH]c1c1c2c2cc(F)c(O)cc2n1CCN1CCOCC1 [Compound 19, 3-fluoro-2-hydroxy-13-(2-morpholin-4-ylethyl)-12,13-dihydro-5H-indolo[2,3-a]pyrrolo[3,4-c]carbazole-5,7(6H)-dione]
